According to US20210246886A1, “Fluorosulfones” (3M INNOVATIVE PROPERTIES COMPANY, priority 2018, published 2021):

Tests used:
[1] = Stability as foam additive in polyol/amine catalyst/cyclopentane mixture (fluoride ion release); type: physicochemical; conditions: for change of fluoride levels over time (reaction with polyol/amine catalyst mixture): over 48 hours at room temperature; for [F—] at 48 hours / [F—] at time 0: polyol/amine catalyst/foam additive/cyclopentane mixture; for [F—] at 48 hours: aged at room temperature; for [F—] at time 0: room temperature
Experimental: The stability of Example 3 (perfluorodiethylsulfone) was measured in a standard polyol/amine catalyst/foam blowing agent mixture commonly used in making polyurethane foams. The stability was compared to CE9 (PF-5060) and CE10 (FA-188), both of which are available from 3M Company, St. Paul, Minn., US. Stability was determined by measuring the increase in fluoride ion levels over time after mixing all the components at room temperature. An increase in fluoride ion levels is a measure of the extent to which the fluorinated foam additive is reacting with the polyol/amine catalyst mixture to release fluoride ion. Fluoride ion measurements were made using a ThermoScientific ORION DUAL STAR pH/ISE channel meter and VWR 14002-788 F Fluoride specific electrode. The electrode was calibrated using fluoride standards of 1, 2, 10, and 100 ppm fluoride ion concentration in aqueous TISAB II (Total Ionic Strength Adjustment Buffer) buffer solution.
The Polyol/Amine Catalyst/Blowing Agent/Foam Additive sample mixtures were prepared by mixing ELASTAPOR P 17655R Resin (a polyol/amine catalyst blend obtained from BASF, Ludwigshafen, Germany), cyclopentane (a common foam blowing agent), and Example 3, CE9, or CE10 as a foam additive. Using a SARTORIUS A200S balance, the cyclopentane/foam additive mixtures were made first by mixing 25.5 grams of cyclopentane with 2.3 grams of foam additive. Then 43.1 grams of the ELASTAPOR polyol containing the amine catalyst was transferred to a wide mouth 4 oz glass jar and 7 g of the cyclopentane/foam additive mixture was added and shaken.
After the sample mixtures were thoroughly shaken and mixed, an aliquot was removed and an initial fluoride concentration was determined at time 0 hr. Analytical samples were prepared by diluting 1 g of the sample mixture with 1 g of isopropyl alcohol and 0.5 mL of 1N sulfuric acid in a polypropylene centrifuge tube and mixing thoroughly. The sample was further diluted with 1 g of water and mixed again. From this mixture a 1 mL aliquot was taken and mixed with 1 mL of TISAB II solution in a fresh polypropylene centrifuge tube and mixed thoroughly prior to fluoride ion measurement. An average of 3 independent fluoride measurements were used to determine the fluoride concentration of each sample using the fluoride specific electrode and meter described above. Similar measurements were taken every 24 hours. The results are summarized in Table 8 below after 0 and 48 hours.

[2] = test system: male Sprague Dawley rats; assay: Inhalation toxicity in rats, single 4-hour whole body exposure; type: in vivo, rat
Experimental: The inhalation toxicity potential of Example 3 was evaluated in male Sprague Dawley rats after a single 4-hour whole body exposure at atmospheric concentrations of 10,000 ppm (v/v). The test material (purity 98.84%) was administered as received at an appropriate volume to a 40-L test chamber containing 3 rats. The test material vaporized upon addition to the chamber. The air within the chamber was regenerated at appropriate intervals to maintain an 18% oxygen concentration. Three control animals were placed in another chamber filled with ambient air. The day of exposure was designated Day 0. Clinical observations were recorded during the exposure period and for 14 days after exposure. Body weights were recorded prior to exposure (Day 0), on Day 1, Day 2, and 14 days after exposure for both the test material-treated and control animals.

[3] = Thermal stability: fluoride ion after aging neat in Monel pressure vessel; type: physicochemical
Experimental: The thermal stability of Example 3 and CE1 was determined by placing duplicate 10-gram samples in clean, 40 mL Monel pressure vessels and sealing tightly. The pressure vessels were then placed in a convection oven set at 100° C. for 24 hours. After aging, each sample was mixed with a known weight of ultrapure (18.2 MΩ) water, agitated in a mechanical shaker at high speed for 15 minutes and finally centrifuged to separate the two phases. Fluoride ion concentrations were subsequently measured in the water phase as previously described. This was then followed by another experiment at 150° C. using the same method.

[4] = Hydrolytic stability: free fluoride in water phase after aging with deionized water; type: physicochemical
Experimental: Duplicate samples of Example 3 and CE1 were tested for hydrolytic stability at 150° C. by placing 10 grams of test material along with 10 grams deionized water in a clean, 40 mL Monel pressure vessel, which was sealed and placed in a convection oven set at 150° C. for 24 hours. After aging, the fluoride concentrations were determined by mixing 1 mL of the water phase from each sample with 1 mL of TISAB II (Total Ionic Strength Buffer) buffer solution. Fluoride ion concentrations were then measured using an ORION EA 940 meter with an ORION 9609BNWB Fluoride-Ion Specific Electrode (ISE) (Thermo Fisher Scientific, Minneapolis, Minn., US). ORION IONPLUS Fluoride standards (1, 2, 10 and 100 ppm Fluoride) were used for the calibration of the meter.
The hydrolytic stability values of Example 3 and CE1 are reported as average parts per million by weight (ppmw) of free fluoride in water in Table 4. Higher levels of free fluoride ion concentration correspond to reduced stability.

Structure (SMILES) | change of fluoride levels over time (reaction with polyol/amine catalyst mixture) [1] | [F—] at 48 hours [1] [ppm] | [F—] at time 0 [1] [ppm] | mortality and clinical observations ([2]; 10,000 ppm (v/v), during 4-hour exposure and throughout 14-day study) | body weight, condition and gross necropsy ([2]; 10,000 ppm (v/v), single 4-hour exposure, 14-day study) | approximate inhalation 4-hour LC50 ([2]; male Sprague Dawley rats, single 4-hour whole body exposure at 10,000 ppm (v/v), 14 days observation) | Average F concentration after 24 hours at 100° C. ([3]; neat, no water, Monel vessel) [ppmw] | Average F concentration after 24 hours at 150° C. ([3]; neat, no water, Monel vessel) [ppmw] | Average F concentration at room temperature ([3]; thermal stability test, before aging) [ppmw] | Average F concentration after 24 hours at 150° C. with DI H2O ([4]; 10 g sample + 10 g deionized water, Monel vessel, 150° C., 24 hours) [ppmw] | Average F concentration at room temperature ([4]; hydrolytic stability test, before aging) [ppmw]
FC(F)(F)C(F)(F)C(F)(F)C(F)(F)C(F)(F)C(F)(F)F [CE9] | essentially unchanged | 0.71 | 0.83 |  |  |  |  |  |  |  | 
O=S(=O)(C(F)(F)C(F)(F)F)C(F)(F)C(F)(F)F [Example 3, Perfluorodiethylsulfone] | essentially unchanged | 10.67 | 11.74 | no mortality or abnormal clinical observations | gained weight and were normal | greater than 10,000 ppm | <0.05 | 0.36 | <0.05 | 11.55 | <0.05
